Entries after “also recorded” stand apart in the source; their conditions may differ.
Tests used:
[1] = system: MG-63, HuO9, or G-292 cells; assay: Transwell chamber migration ability of osteosarcoma cells with LPA as chemoattractant; format: cell-based, human; conditions: 4 to 6 hours, MG-63, HuO9, G-292
Experimental: Next, the influence of LPA on migration ability and invasive ability was analyzed (FIG. 3C). Analysis of migration ability was carried out by using a Transwell chamber (Corning Incorporated, 8.0 μm pore). In an insert, 1×10^5 MG-63, HuO9, or G-292 cells suspended in 0.3 mL of serum-free MEM medium were seeded with 10 nM LPA as a chemoattractant in 1.25 mL of serum-free MEM medium put in the lower chamber, left to stand for 4 to 6 hours and then fixed, and subjected to analysis of migration ability (LPA). Separately, cells after being pretreated with 100 nM Ki16425 (Santa Cruz Biotechnology, Inc.), which is an LPAR antagonist, for 1 hour were collected, seeded in an insert, and subjected to analysis of migration ability in the presence of 100 nM Ki16425 (LPA+Ki16425).

[2] = system: osteosarcoma cells MG-63, HuO9, and G-292; assay: Matrigel Invasion Chamber invasive ability of osteosarcoma cells with platelet releasate; format: cell-based, human; conditions: cells treated with Ki16425 in advance (100 nM), platelet releasate in underlying chamber, 22 to 24 hours
Experimental: The osteosarcoma cells MG-63, HuO9, and G-292 were each seeded in an insert (upper chamber) of a Matrigel Invasion Chamber (Corning Incorporated) at 1.5×10^5 cells/0.5 mL with the platelet releasate put in the lower chamber, and left to stand at 37° C. for 22 to 24 hours, and then cells on the top surface of the insert were completely wiped away, fixation was performed with 4% paraformaldehyde, and cells on the bottom surface of the membrane of the insert, i.e., invaded cells were stained with 1% crystal violet (FIG. 1B).
(§1) In addition, analysis of invasive ability was carried out by using a Matrigel Invasion Chamber in the same manner as for FIG. 1C (FIG. 3D). […] Accordingly, the reduction in migration ability and invasive ability due to Ki16425 was confirmed not to be caused by cytotoxicity to the cells.

G-292 and MG-63 cells = assay: Cell viability / cytotoxicity of osteosarcoma cells with Ki16425 (FIG. 3E); format: cell-based, human
Experimental: as §1

[3] = system: human glioblastoma cells Onda7, YKG-1, and 42-MG-BA; assay: Transwell chamber migration ability of glioblastoma cells with LPA; format: cell-based; conditions: 24 hours
Experimental: Accordingly, the effects of LPAR1 antagonists to suppress metastasis and cell proliferation are also expected to be exerted for glioma. In view of the fact that glioblastoma is the highest malignancy tumor among gliomas as described above, migration ability with addition of LPA was analyzed with glioblastoma cell strains. Analysis was performed to determine whether the mobility of glioblastoma cells is augmented in the presence of LPA. In a Transwell chamber, the human glioblastoma cells Onda7 (obtained from JCRB Cell Bank), YKG-1 (obtained from JCRB Cell Bank), and 42-MG-BA (obtained from DSMZ) were seeded at 1×10^5 cells each, with addition of 100 nM LPA as a migration factor to the underlying chamber, and 24 hours thereafter cells that migrated to the underlying chamber were stained with crystal violet and quantified. Before being collected, the cells were pretreated with 100 nM Ki16425, which is an LPAR antagonist, for 1 hour, and subjected to analysis of migration ability still in the presence of 100 nM Ki16425.

[4] = system: human glioblastoma cells Onda7, YKG-1, and 42-MG-BA; assay: Glioblastoma cell viability with LPAR1 antagonists, CellTiter-Gro; format: cell-based; conditions: different concentrations, 72 hours; Onda7, YKG-1, 42-MG-BA
Experimental: Next, examination was carried out to determine whether LPAR1 antagonists had effects on viabilities of glioblastoma cells. On a 96-well plate, 1500 to 3000 cells of each of the human glioblastoma cells Onda7, YKG-1, and 42-MG-BA were seeded and treated with any of the LPAR1 antagonists Ki16425, BMS-986020, and ONO-7300243 in different concentrations, and the cell viabilities 72 hours thereafter were determined with CellTiter-Gro reagent (FIG. 10A).

LPAR1 = LPAR1 (Homo sapiens, UniProt Q92633); conditions: cited from earlier work
LPAR1, sequence (Q92633 whole entry, species assumed): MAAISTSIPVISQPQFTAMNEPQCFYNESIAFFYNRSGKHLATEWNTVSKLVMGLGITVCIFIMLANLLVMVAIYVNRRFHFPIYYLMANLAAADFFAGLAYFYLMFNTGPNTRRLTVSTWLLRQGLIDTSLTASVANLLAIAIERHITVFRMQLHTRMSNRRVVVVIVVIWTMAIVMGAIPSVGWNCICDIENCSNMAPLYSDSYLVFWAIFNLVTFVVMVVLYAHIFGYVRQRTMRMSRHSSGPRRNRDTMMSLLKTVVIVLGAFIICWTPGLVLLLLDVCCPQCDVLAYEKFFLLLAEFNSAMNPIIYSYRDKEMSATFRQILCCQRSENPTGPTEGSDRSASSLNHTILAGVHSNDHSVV

LPAR2 = LPAR2 (Homo sapiens, UniProt Q9HBW0); conditions: cited from earlier work
LPAR2, sequence (Q9HBW0 whole entry, species assumed): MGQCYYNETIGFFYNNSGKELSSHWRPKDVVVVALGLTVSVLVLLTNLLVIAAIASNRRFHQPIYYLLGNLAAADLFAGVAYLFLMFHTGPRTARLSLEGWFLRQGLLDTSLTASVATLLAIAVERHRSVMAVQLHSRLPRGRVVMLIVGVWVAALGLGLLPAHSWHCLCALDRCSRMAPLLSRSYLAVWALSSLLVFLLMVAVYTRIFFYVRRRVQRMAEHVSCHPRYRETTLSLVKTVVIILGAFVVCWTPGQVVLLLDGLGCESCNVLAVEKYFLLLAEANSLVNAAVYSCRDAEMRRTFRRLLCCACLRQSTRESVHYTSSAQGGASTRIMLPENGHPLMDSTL

LPAR3 = molecular target: T1, LPAR3 (Homo sapiens, UniProt Q9UBY5); conditions: cited from earlier work
T1 sequence (Q9UBY5 1-353): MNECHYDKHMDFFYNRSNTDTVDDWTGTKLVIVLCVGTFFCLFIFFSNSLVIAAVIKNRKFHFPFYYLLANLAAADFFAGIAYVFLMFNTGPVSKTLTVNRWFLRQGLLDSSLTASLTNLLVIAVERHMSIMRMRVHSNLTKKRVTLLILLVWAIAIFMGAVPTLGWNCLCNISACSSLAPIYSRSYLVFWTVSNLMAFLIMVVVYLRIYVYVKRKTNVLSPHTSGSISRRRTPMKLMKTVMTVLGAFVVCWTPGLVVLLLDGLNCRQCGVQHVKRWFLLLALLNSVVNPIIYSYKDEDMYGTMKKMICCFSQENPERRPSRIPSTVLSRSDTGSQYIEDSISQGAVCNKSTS

HuO9/Akaluc cells = assay: Lung metastasis mouse model, intravenously injected HuO9/Akaluc cells, bioluminescent imaging; format: in vivo
Experimental: Into each female SCID-beige mouse (C.B-lgh-1b/GbmsTac-Prkdc^scid-Lyst^bgN7, Charles River Laboratories Japan, Inc.), 1×10^6 MG-63/Akaluc/sgCTRL or MG-63/Akaluc/sgLPAR #1 cells were intravenously injected, 3 hours and 7 days after, 100 μL of 5 mM AkaLumine-HCL was intraperitoneally injected and in vivo luminescence imaging (bioluminescent imaging, BLI) was carried out. The BLI was carried out by using an IVIS imaging system (PerkinElmer, Inc.). […] On the day of intravenous injection of cells (Day 0), the both types of cells were captured in lungs to the same degree.
Next, effects of an LPAR1 antagonist was examined. Analysis with a mouse model was carried out by using ONO-7300243 (Cayman Chemical Company), which is one of LPAR1 inhibitors. […] In the experiment, ONO-7300243 was used at different doses of 10 mg/kg and 30 mg/kg.
The BLI was carried out for 1.5 to 3 hours, 1 day, and 2 days after the administration (FIG. 6B). Immediately after the administration, it was observed that HuO9/Akaluc cells were captured in lungs at any dose.

osteosarcoma cells G-292 = assay: Osteosarcoma G-292 subcutaneous xenograft model, tumor volume; format: in vivo; conditions: oral 30 mg/kg, 5 consecutive days and withdrawal for 2 days from Day 1, from Day 14, SCID-beige mouse
Experimental: Into each female SCID-beige mouse, 8.2×10^5 cells of the osteosarcoma cells G-292 were subcutaneously transplanted (Day 0), and on the day after the transplantation (Day 1) oral administration according to a dosing schedule of continuous administration of the LPAR1 antagonist BMS-986020 of 30 mg/kg for 5 consecutive days and withdrawal for 2 days was initiated (FIG. 8A). The proliferation of tumor was analyzed by measuring the major axis and minor axis of tumor and calculating the tumor volume as major axis (mm)×[minor axis (mm)]^2×½.

Onda7 cells = assay: Glioblastoma intracranial xenograft model (Onda7 with Akaluc luciferase), IVIS imaging; format: in vivo, mouse; conditions: oral 50 mg/kg or 100 mg/kg, 5 days on/2 days off from 3 weeks after transplantation; from 2 weeks after initiation, even for 50 mg/kg
Experimental: Examination was carried out to determine whether an LPAR1 antagonist exerts antitumor effect even for glioblastoma. Into each female SCID-beige mouse, 2×10^5 Onda7 cells with Akaluc luciferase introduced therein were intracranially transplanted. Three weeks after the transplantation, oral administration according to a dosing schedule of continuous administration of the LPAR1 antagonist BMS-986020 of 50 mg/kg or 100 mg/kg for 5 consecutive days and withdrawal for 2 days was initiated (FIG. 11A). For tumor volume, the enzymatic activity of AkaLuc luciferase stably expressed in Onda7 cells was quantified with an IVIS imaging system (FIG. 11B).

MG-63 cells = assay: Immunostaining of phosphorylated AKT and F-actin in LPA-treated osteosarcoma cells; format: cell-based, human; conditions: 100 nM LPA for 4 hours, serum-free MEM
Experimental: LPA receptors are G-protein-coupled receptors, and LPAR1 is known to activate three G proteins, Gαi/0, Gαq/11, and Gα12/13, and to activate a signal transduction system including a PI3K/AKT pathway. MG-63 cells were cultured with serum-free MEM medium overnight, then treated with 100 nM LPA for 4 hours, immunostained through a conventional method with an anti-phosphorylated AKT antibody (an antibody to detect phosphorylation of S473), rhodamine-labeled phalloidin (for binding to F actin), and Hoechst 33342 (for staining nuclei), and observed with a microscope (FIG. 3B). […] Although results are not shown herein, time-lapse analysis with a microscope was carried out to analyze effects of LPA on osteosarcoma cells, and it was observed that osteosarcoma cells formed numerous protrusions (pseudopodia) as a result of the LPA treatment.

## Cc1noc(-c2ccc(CSCCC(=O)O)cc2)c1NC(=O)OC(C)c1ccccc1Cl (stereo not drawn) [Ki16425]
[1]; 100 nM Ki16425 (1 hour pretreatment and during assay), 10 nM LPA in lower chamber
  migration ability: cancellation of the effects of LPA; also recorded: largely reduced migration ability
[2]
  invasive ability: cancellation of the effects of platelet releasate; also recorded: largely reduced invasive ability
G-292 and MG-63 cells; 100 nM, 4 to 6 hours (migration) or 22 to 24 hours (invasion)
  cytotoxicity: no cytotoxicity was found
G-292 and MG-63 cells; cultured for 72 hours, Ki16425 at 500 nM or more, G-292 and MG-63
  cell viabilities: reduced cell viabilities
[3]; 100 nM Ki16425 (1 hour pretreatment and during assay), 100 nM LPA
  migration ability: largely reduced migration ability
[4]
  cell viabilities: Reduced cell viabilities
LPAR1
  inhibitory effect to LPAR1: exhibits inhibitory effect
LPAR2
  inhibitory effect to LPAR2: exhibits inhibitory effect
LPAR3
  inhibitory effect to LPAR3: exhibits inhibitory effect

## COc1cc(C(=O)N(CCCc2ccccc2)Cc2ccc(CC(=O)O)cc2)cc(OC)c1C [ONO-7300243]
HuO9/Akaluc cells; Day 1, 30 mg/kg administration group vs solvent administration group
  Total Flux measured with the IVIS: significant difference
HuO9/Akaluc cells; Day 2, 10 mg/kg administration group vs 30 mg/kg administration group
  Total Flux measured with the IVIS: significant difference
HuO9/Akaluc cells; day of injection of cells, among the groups
  Total Flux measured with the IVIS: no significant difference
HuO9/Akaluc cells; oral 10 mg/kg and 30 mg/kg before i.v. HuO9/Akaluc cells, a day or two later, vs solvent administration group
  osteosarcoma cells captured in lungs (BLI) / lung metastasis: lung metastasis is suppressed; also recorded: reduction of osteosarcoma cells captured in lungs
[4]
  cell viabilities: Reduced cell viabilities

## Cc1noc(-c2ccc(-c3ccc(C4(C(=O)O)CC4)cc3)cc2)c1NC(=O)O[C@H](C)c1ccccc1 [BMS-986020]
Osteosarcoma cells G-292; 30 mg/kg
  tumor volume / tumor proliferation: significant tumor proliferation-suppressing effect
Osteosarcoma cells G-292; listed as BMS986020, 30 mg/kg
  tumor volume / tumor proliferation: tumor proliferation is suppressed
[4]
  cell viabilities: Reduced cell viabilities
Onda7 cells
  proliferation of glioblastoma cells / relative tumor volume: almost comparable to that at the transplantation

## lysophosphatidic acid [LPA]
[1]; 10 nM LPA as chemoattractant
  migration ability (effect of LPA): migration ability largely enhanced
[3]; 100 nM LPA as migration factor
  migration ability (effect of LPA): migration ability was largely enhanced
MG-63 cells
  phosphorylated AKT (S473): Activated AKT was found

From patent publication US20240285587A1, “NOVEL THERAPEUTIC AGENT THAT SUPPRESSES METASTASIS AND PROLIFERATION OF OSTEOSARCOMA AND GLIOMA” (JAPANESE FOUNDATION FOR CANCER RESEARCH, priority 2021, published 2024)
